Measured values as given in PubChem BioAssay AID256 (DTP/NCI, 2004).
Several values for one entry are separate records, joined by “and”; a condition that tells them apart may be missing. Equal values may be shown once. Toxic doses and inconclusive results are not listed. The calls were made as follows: active = survival T/C of 150% or more; inactive = T/C below 125% in these data.

System: CD2F1 mice, L1210 leukemia ip, survival T/C
Test: NCI In Vivo Anticancer Drug Screen. Data for tumor model L1210 Leukemia (intraperitoneal) in CD2F1 (CDF1) mice
Settings: higher = longer survival
Method in brief: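 Activity against a transplanted murine tumor was judged by comparing the compound group with a vehicle group. The outcome in the treated animals was divided by that in the controls.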

Measured: T/C

COc1cc(C(O)C(Cl)(Cl)Cl)ccc1O (stereo not given)
inactive: endpoint: mean survival time, dose: 100.0 mg/kg/injection, schedule: Q01DX009 (ip), vehicle: other 94 % of control | endpoint: mean survival time, dose: 200.0 mg/kg/injection, schedule: Q01DX009 (ip), vehicle: other 105 % of control | endpoint: mean survival time, dose: 400.0 mg/kg/injection, schedule: Q01DX009 (ip), vehicle: other 94 % of control

COc1ccc(NC(=O)Oc2ccc(SC)c(C)c2)cc1
inactive: endpoint: mean survival time, dose: 25.0 mg/kg/injection, schedule: Q01DX009 (ip), vehicle: saline with Tween-80 101 % of control | endpoint: mean survival time, dose: 25.0 mg/kg/injection, schedule: Q04DX002 (ip), vehicle: saline with Tween-80 100 % of control | endpoint: mean survival time, dose: 50.0 mg/kg/injection, schedule: Q01DX009 (ip), vehicle: saline with Tween-80 95 % of control | endpoint: mean survival time, dose: 50.0 mg/kg/injection, schedule: Q04DX002 (ip), vehicle: saline with Tween-80 107 % of control | endpoint: mean survival time, dose: 100.0 mg/kg/injection, schedule: Q01DX009 (ip), vehicle: saline with Tween-80 89 % of control | endpoint: mean survival time, dose: 100.0 mg/kg/injection, schedule: Q04DX002 (ip), vehicle: saline with Tween-80 91 % of control and 104 % of control | endpoint: mean survival time, dose: 400.0 mg/kg/injection, schedule: Q04DX002 (ip), vehicle: saline with Tween-80 91 % of control

CCOC(=O)c1cnn(CCO)c1N
inactive: endpoint: mean survival time, dose: 50.0 mg/kg/injection, schedule: Q04DX003 (ip), vehicle: water 100 % of control | endpoint: mean survival time, dose: 100.0 mg/kg/injection, schedule: Q04DX003 (ip), vehicle: water 97 % of control | endpoint: mean survival time, dose: 200.0 mg/kg/injection, schedule: Q04DX003 (ip), vehicle: water 101 % of control | endpoint: mean survival time, dose: 400.0 mg/kg/injection, schedule: Q04DX003 (ip), vehicle: water 103 % of control and 107 % of control | endpoint: mean survival time, dose: 600.0 mg/kg/injection, schedule: Q04DX003 (ip), vehicle: water 101 % of control | endpoint: mean survival time, dose: 800.0 mg/kg/injection, schedule: Q04DX003 (ip), vehicle: water 105 % of control

ClC1CC[N-]CC1.ClC1CC[N-]CC1.[Cl][Pt+2]([Cl])([Cl])[Cl]
inactive: endpoint: mean survival time, dose: 12.5 mg/kg/injection, schedule: Q01DX009 (ip), vehicle: water 123 % of control | endpoint: mean survival time, dose: 25.0 mg/kg/injection, schedule: Q01DX009 (ip), vehicle: water 110 % of control

O=[N+]([O-])c1ccccc1NCCNCCNc1ccccc1[N+](=O)[O-]
inactive: endpoint: mean survival time, dose: 100.0 mg/kg/injection, schedule: Q04DX003 (ip), vehicle: saline with Tween-80 113 % of control | endpoint: mean survival time, dose: 200.0 mg/kg/injection, schedule: Q04DX003 (ip), vehicle: saline with Tween-80 98 % of control | endpoint: mean survival time, dose: 400.0 mg/kg/injection, schedule: Q04DX003 (ip), vehicle: saline with Tween-80 98 % of control

C1CCC(C2CCCC[N-]2)[N-]C1.CC([NH-])C(=O)O.[Cl][Pt] (stereo not given)
inactive: endpoint: median survival time, dose: 10.0 mg/kg/injection, schedule: Q04DX003 (ip), vehicle: saline 107 % of control | endpoint: median survival time, dose: 20.0 mg/kg/injection, schedule: Q04DX003 (ip), vehicle: saline 105 % of control | endpoint: median survival time, dose: 40.0 mg/kg/injection, schedule: Q04DX003 (ip), vehicle: saline 110 % of control | endpoint: median survival time, dose: 80.0 mg/kg/injection, schedule: Q04DX003 (ip), vehicle: saline 97 % of control and 104 % of control | endpoint: median survival time, dose: 160.0 mg/kg/injection, schedule: Q04DX003 (ip), vehicle: saline 108 % of control | endpoint: median survival time, dose: 320.0 mg/kg/injection, schedule: Q04DX003 (ip), vehicle: saline 96 % of control

C[S+]1C=Cc2ccccc2C1c1ccc(Cl)cc1 (stereo not given)
inactive: endpoint: mean survival time, dose: 12.5 mg/kg/injection, schedule: Q04DX002 (ip), vehicle: Klucel (hydroxypropylcellulose) (HPC) 103 % of control | endpoint: mean survival time, dose: 25.0 mg/kg/injection, schedule: Q04DX002 (ip), vehicle: Klucel (hydroxypropylcellulose) (HPC) 100 % of control | endpoint: mean survival time, dose: 50.0 mg/kg/injection, schedule: Q04DX002 (ip), vehicle: Klucel (hydroxypropylcellulose) (HPC) 105 % of control
